According to US8589175B2, “Optimization and individualization of medication selection and dosing” (Children's Hospital Medical Center, priority 2005, dated 2013):
Read-outs that look alike come from different tables or passages of the source.

Key:
[1] = tested on: CYP2D6
[2] = tested on: CYP2C19; assay: dosing recommendation per CYP2C19 metabolizer subgroup as percentage of usual population dose (Equations 4-6)
From the text: Assuming the goal is to maintain the same AUC for all three subpopulations of patients, the following subpopulation dosing relationships hold: DPM=DEM*(AUCEM/AUCPM) OR DPM=DEM*R if R=(AUCEM/AUCPM) (Equation 2) DIM=DEM*(AUCEM/AUCIM) OR DIM=DEM*S if S=(AUCEM/AUCIM) (Equation 3)
By substituting equations 2 and 3 into equation 1, and then rearranging the equation to solve for the percent dose adjustment needed for each subgroup relative to the population dose: DEM(%)=100/(fEM+fIM*S+fPM*R) (Equation 4) DPM(%)=R*DEM (Equation 5) DIM(%)=S*DEM (Equation 6) Equations 4, 5, and 6 show how the dosing for the more homogeneous subgroups is determined and how the dosing results are expressed as a fraction of the clinician's usual heterogeneous whole group dosages. Determining “Minimal Dose Adjustment Units”
Example: The approach in the previous section leads to individualized initial drug dose recommendations for each of the 3 subgroups (extensive, poor and intermediate metabolizers). Each subgroup represents a specific number of functional alleles for the specific DME (extensive metabolizers have 2 functional, intermediate metabolizers have 1 functional and poor metabolizers have 0 functional). The resultant dosing recommendations are expressed as percentages of the clinician's usual starting dose. It is possible to investigate the effect of increasing numbers of non-functional alleles using these new dosing recommendations. For example, if DRX % is the dosing recommendation for subgroup X expressed as a percentage of the clinician's usual starting dose then the following are true: Effect of […] 1 non-functional allele=(DREM %−DRIM %)/DREM % Effect of 2 non-functional allele=(DREM %−DRPM %)/DREM % Below is a spreadsheet (Table 3) that examines this for CYP2D6, CYP2C19 and CYP2C9. […] 2C9 has 2 MDA units per non-functional allele.

[3] = CYP2D6, ratio of the two effects
[4] = CYP2D6 extensive metabolizers, percent of usual dose
[5] = CYP2D6 intermediate metabolizers, percent of usual dose
[6] = CYP2D6 poor metabolizers, percent of usual dose
[7] = CYP2D6 ultrarapid metabolizers, percent of usual dose

| 1 al (effect of 1 non-functional allele) ([1]; human) | 2 al (effect of 2 non-functional alleles) ([1]; human) | 2 al/1 al ([1]; human) | EM (%) dosing recommendation ([1]; human) | IM (%) dosing recommendation ([1]; human) | PM (%) dosing recommendation ([1]; human) | UM (%) dosing recommendation ([1]; human) | Structure (SMILES) | further results |
| --- | --- | --- | --- | --- | --- | --- | --- | --- |
| 0.21 | 0.35 | 1.67 | 114% | 90% | 74% | 134% | CN1CCN2c3ccccc3Cc3ccccc3C2C1 (centres unmarked) [mianserin] | 1 al (effect of 1 non-functional allele) ([2]; human): 0.00; 2 al (effect of 2 non-functional alleles) ([2]; human): 0.00; IM (%) dosing recommendation ([2]; human): 100%; PM (%) dosing recommendation ([2]; human): 100%; UM (%) dosing recommendation ([2]; human): 100% |
| 0.00 | 0.01 | – | 100% | 100% | 99% | 100% | CN[C@H]1CC[C@@H](c2ccc(Cl)c(Cl)c2)c2ccccc21 [sertraline] | 1 al (effect of 1 non-functional allele) ([2]; human): 0.14; 2 al (effect of 2 non-functional alleles) ([2]; human): 0.29; 2 al/1 al ([2]; human): 2.00; IM (%) dosing recommendation ([2]; human): 90%; PM (%) dosing recommendation ([2]; human): 75%; UM (%) dosing recommendation ([2]; human): 105% |
| 0.08 | 0.14 | 1.88 | 105% | 97% | 90% | 113% | CCc1nn(CCCN2CCN(c3cccc(Cl)c3)CC2)c(=O)n1CCOc1ccccc1 [nefazodone] | – |
| 0.03 | 0.07 | – | 102% | 99% | 95% | 105% | O=c1[nH]c2ccccc2n1C1CCN(CCCC(c2ccc(F)cc2)c2ccc(F)cc2)CC1 [pimozide] | – |
| 0.15 | 0.31 | 2.00 | 110% | 93% | 76% | 127% | O=c1n(CCCN2CCN(c3cccc(Cl)c3)CC2)nc2ccccn12 [trazadone] | – |
| −0.02 | −0.03 | – | 99% | 101% | 102% | 97% | CN1CCN2c3ncccc3Cc3ccccc3C2C1 (centres unmarked) [mirtazapine] | – |
| 0.00 | 0.00 | – | 100% | 100% | 100% | 100% | COc1ccc2c(c1)N(C[C@H](C)CN(C)C)c1ccccc1S2 [levomepromazine] | – |
| 0.17 | 0.22 | 1.26 | 110% | 91% | 86% | 117% | CN1CCN(CCCN2c3ccccc3Sc3ccccc32)CC1 [perazine] | – |
| 0.22 | 0.46 | 2.04 | 116% | 90% | 63% | 142% | OCCN1CCN(CC/C=C2/c3ccccc3Sc3ccc(Cl)cc32)CC1 [zuclopenthixol] | – |
| 0.09 | 0.29 | 3.10 | 107% | 97% | 76% | 126% | O=C(CCCN1CCC(O)(c2ccc(Cl)cc2)CC1)c1ccc(F)cc1 [haloperidol] | – |

The remaining lines, values behind:

| Structure (SMILES) | 1 al (effect of 1 non-functional allele) ([1]; human) | 2 al (effect of 2 non-functional alleles) ([1]; human) | 2 al/1 al ([1]; human) | EM (%) dosing recommendation ([1]; human) | IM (%) dosing recommendation ([1]; human) | PM (%) dosing recommendation ([1]; human) | UM (%) dosing recommendation ([1]; human) | further results |
| --- | --- | --- | --- | --- | --- | --- | --- | --- |
| O=C1CCc2ccc(OCCCCN3CCN(c4cccc(Cl)c4Cl)CC3)cc2N1 [aripiprazole] | – | – | – | – | – | – | – | 1 al (effect of 1 non-functional allele) ([1]; CYP2D6, (DREM%-DRIM%)/DREM%): 0.19; 2 al (effect of 2 non-functional alleles) ([1]; CYP2D6, (DREM%-DRPM%)/DREM%): 0.38; 2 al/1 al [1, 3]: 2.05; EM (%) dosing recommendation [1, 4]: 113%; IM (%) dosing recommendation [1, 5]: 92%; PM (%) dosing recommendation [1, 6]: 70%; UM (%) dosing recommendation [1, 7]: 134% |
| CNCCCN1c2ccccc2CCc2ccccc21 [desipramine] | 0.34 | 0.66 | 1.98 | 125% | 83% | 42% | 167% | – |
| OCCN1CCN(CCCN2c3ccccc3Sc3ccc(Cl)cc32)CC1 [perphenazine] | – | – | – | – | – | – | – | 1 al (effect of 1 non-functional allele) ([1]; CYP2D6, (DREM%-DRIM%)/DREM%): 0.38; 2 al (effect of 2 non-functional alleles) ([1]; CYP2D6, (DREM%-DRPM%)/DREM%): 0.76; 2 al/1 al [1, 3]: 2.00; EM (%) dosing recommendation [1, 4]: 129%; IM (%) dosing recommendation [1, 5]: 80%; PM (%) dosing recommendation [1, 6]: 31%; UM (%) dosing recommendation [1, 7]: 178% |
| Cc1nc2n(c(=O)c1CCN1CCC(c3noc4cc(F)ccc34)CC1)CCCC2 [risperidone] | 0.09 | – | – | – | – | – | – | – |
| CN1CCN(C2=Nc3cc(Cl)ccc3Nc3ccccc32)CC1 [clozapine] | −0.11 | −0.20 | – | 94% | 104% | 113% | 84% | 1 al (effect of 1 non-functional allele) ([2]; human): 0.13; 2 al (effect of 2 non-functional alleles) ([2]; human): 0.25; 2 al/1 al ([2]; human): 2.00; IM (%) dosing recommendation ([2]; human): 91%; PM (%) dosing recommendation ([2]; human): 78%; UM (%) dosing recommendation ([2]; human): 104% |
| CNCCC(Oc1ccc(C(F)(F)F)cc1)c1ccccc1 (centres unmarked) [fluoxetine] | 0.12 | 0.27 | – | – | 94% | 78% | 120% | 1 al (effect of 1 non-functional allele) ([2]; CYP2C19): 0.20; 2 al (effect of 2 non-functional alleles) ([2]; CYP2C19): 0.35; IM (%) dosing recommendation ([2]; CYP2C19 intermediate metabolizers, percent of usual dose): 86%; PM (%) dosing recommendation ([2]; CYP2C19 poor metabolizers, percent of usual dose): 70% |
| CNCCC=C1c2ccccc2CCc2ccccc21 [nortriptyline] | 0.19 | 0.55 | 2.87 | 119% | 96% | 53% | 152% | – |
| CN(C)CCCN1c2ccccc2CCc2ccc(Cl)cc21 [clomipramine] | – | – | – | – | – | – | – | 1 al (effect of 1 non-functional allele) ([2]; human): 0.28; 2 al (effect of 2 non-functional alleles) ([2]; human): 0.44; IM (%) dosing recommendation ([2]; human): 79%; UM (%) dosing recommendation ([2]; human): 110% |
| Cl.Cl.OCCN1CCN(CCC=C2c3ccccc3Sc3ccc(C(F)(F)F)cc32)CC1 (mixture of isomers) [flupentixol] | – | – | – | – | – | – | – | 1 al (effect of 1 non-functional allele) [1]: 0.26; 2 al (effect of 2 non-functional alleles) [1]: 0.36; 2 al/1 al [1]: 1.40; EM (%) dosing recommendation [1]: 116%; IM (%) dosing recommendation [1]: 86%; PM (%) dosing recommendation [1]: 74%; UM (%) dosing recommendation [1]: 146% |
| CN(C)CCCC1(c2ccc(F)cc2)OCc2cc(C#N)ccc21 (centres unmarked) [citalopram] | 0.01 | 0.03 | – | 101% | 100% | 98% | 102% | 1 al (effect of 1 non-functional allele) ([2]; human): 0.22; 2 al (effect of 2 non-functional alleles) ([2]; human): 0.44; 2 al/1 al ([2]; human): 1.96; IM (%) dosing recommendation ([2]; human): 84%; PM (%) dosing recommendation ([2]; human): 61%; UM (%) dosing recommendation ([2]; human): 108% |
| Fc1ccc([C@@H]2CCNC[C@H]2COc2ccc3c(c2)OCO3)cc1 [paroxetine] | – | – | – | – | – | – | – | 1 al (effect of 1 non-functional allele) ([1]; CYP2D6, (DREM%-DRIM%)/DREM%): 0.21; 2 al (effect of 2 non-functional alleles) ([1]; CYP2D6, (DREM%-DRPM%)/DREM%): 0.42; 2 al/1 al [1, 3]: 2.00; EM (%) dosing recommendation [1, 4]: 114%; IM (%) dosing recommendation [1, 5]: 90%; PM (%) dosing recommendation [1, 6]: 66%; UM (%) dosing recommendation [1, 7]: 138% |
| COc1ccc(C(CN(C)C)C2(O)CCCCC2)cc1 (centres unmarked) [venlafaxine] | – | – | – | – | – | – | – | 1 al (effect of 1 non-functional allele) ([1]; CYP2D6, (DREM%-DRIM%)/DREM%): 0.21; 2 al (effect of 2 non-functional alleles) ([1]; CYP2D6, (DREM%-DRPM%)/DREM%): 0.38; 2 al/1 al [1, 3]: 1.78; EM (%) dosing recommendation [1, 4]: 109%; IM (%) dosing recommendation [1, 5]: 86%; PM (%) dosing recommendation [1, 6]: 68%; UM (%) dosing recommendation [1, 7]: 130% |
